Assay results published in EP1166782A2, “Anti-retroviral pharmaceutical compositions” (Yang, Chi-Chiang, priority 2000, dated 2002).
Where two headings read alike, the source gives them in different places.

Columns and labels:
T cells-tropic (JRCSF) = experiment: P24 quantification (P24 EIA) in infected PBMCs, JRCSF; format: cell-based, HIV-1; conditions: PBMC; for concentrations of the viral P24 antigen, JRCSF(+): (+) original concentration of compound maintained after washing; for concentrations of the viral P24 antigen, JRCSF(-): (-) compound removed after washing
Protocol: (§1) PBMCs were treated with various concentrations of CAPE, MC and PEDMC provided in Example 2 and simultaneously infected with […] and macrophage and T cells dual tropic (89.6) HIV-1 isolates. The next day, the added compounds were removed by washing methods or maintained at the same concentration. Samples were divided into two groups and the upernatants of the culture medium were collected at the 3 and 7 days after infection, respectively. The use of P24 EIA Reagent Kit of Abbott Laboratory compares the concentrations of viral P24 antigen with or without the compounds tested.

[1] = system: macrophage and T cells dual tropic (89.6); experiment: P24 quantification (P24 EIA) in infected PBMCs, 89.6; format: cell-based, HIV-1; conditions: PBMC; for concentrations of the viral P24 antigen, 89.6(+): (+) original concentration of compound maintained after washing; for concentrations of the viral P24 antigen, 89.6(-): (-) compound removed after washing
Protocol: as §1

[2] = system: macrophage-tropic (NL-43); experiment: P24 quantification (P24 EIA) in infected PBMCs, NL-43; format: cell-based, HIV-1; conditions: PBMC; for concentrations of the viral P24 antigen, NL43(+): (+) original concentration of compound maintained after washing; for concentrations of the viral P24 antigen, NL43(-): (-) compound removed after washing
Protocol: as §1

[3] = system: various HIV isolates (NL-43, JRCSF or 89.6); experiment: P24 quantification, summary statements over all isolates; format: cell-based, HIV-1
Protocol: as §1

[4] = system: Peripheral Blood Mononuclear Cells (PBMC); conditions: for The numbers of dead cells in 400 cells' count / % viability: 48 hours; for The numbers of dead cells in 400 cells' count: control 9 dead cells; for % viability: viable cells versus control (391);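 as to all read-outs here: trypan blue dye exclusion, cells stained and counted from quadruplicate dishes, DMSO vehicle kept under 0.5%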
Protocol: Viability of the cells was assayed by the trypan blue dye exclusion method. […] The concentration of DMSO was adjusted to be less than 0.5%. Cells from quadruplicated dishes were washed once with Hank's Balanced Salt Solution (HBSS). According to the process, the floating dead cells will be separated from the live monolayer cells. Then the cells were stained with trypan blue and counted. The total number of viable cells in the control group was considered as 100% viability and the agent-treated cells were compared with the control group for the determination of % viability. The % viability of agent-treated cells was calculated from the total number of viable cells in the control group and in the agent-treated group.

SMILES: COC(=O)/C=C/c1ccc(O)c(O)c1 [MC, methyl caffeate]
- concentrations of the viral P24 antigen, JRCSF(+) (T cells-tropic (JRCSF); 0.1 µM): 1000 unit
- concentrations of the viral P24 antigen, JRCSF(-) (T cells-tropic (JRCSF); 0.1 µM): 1000 unit
- concentrations of the viral P24 antigen, JRCSF(+) (T cells-tropic (JRCSF); 0.5 µM): 1000 unit
- concentrations of the viral P24 antigen, JRCSF(-) (T cells-tropic (JRCSF); 0.5 µM): 1000 unit
- concentrations of the viral P24 antigen, JRCSF(+) (T cells-tropic (JRCSF); 1 µM): 1000 unit
- concentrations of the viral P24 antigen, JRCSF(-) (T cells-tropic (JRCSF); 1 µM): 1000 unit
- concentrations of the viral P24 antigen, JRCSF(+) (T cells-tropic (JRCSF); 5 µM): 58.13 unit
- concentrations of the viral P24 antigen, JRCSF(-) (T cells-tropic (JRCSF); 5 µM): 1000 unit
- concentrations of the viral P24 antigen, JRCSF(+) (T cells-tropic (JRCSF); 10 µM): 2.53 unit
- concentrations of the viral P24 antigen, JRCSF(-) (T cells-tropic (JRCSF); 10 µM): 828.46 unit
- concentrations of the viral P24 antigen, JRCSF(+) (T cells-tropic (JRCSF); 25 µM): 2.33 unit
- concentrations of the viral P24 antigen, JRCSF(-) (T cells-tropic (JRCSF); 25 µM): 786.67 unit
- concentrations of the viral P24 antigen, JRCSF(+) (T cells-tropic (JRCSF); 50 µM): 0 unit
- concentrations of the viral P24 antigen, JRCSF(-) (T cells-tropic (JRCSF); 50 µM): 42.64 unit
- concentrations of the viral P24 antigen, JRCSF(+) (T cells-tropic (JRCSF); 100 µM): 0 unit
- concentrations of the viral P24 antigen, JRCSF(-) (T cells-tropic (JRCSF); 100 µM): 0 unit
- concentrations of the viral P24 antigen, JRCSF(+) (T cells-tropic (JRCSF); 200 µM): 0 unit
- concentrations of the viral P24 antigen, JRCSF(-) (T cells-tropic (JRCSF); 200 µM): 0 unit
- concentrations of the viral P24 antigen, JRCSF(+) (T cells-tropic (JRCSF); 400 µM): 0 unit
- concentrations of the viral P24 antigen, JRCSF(-) (T cells-tropic (JRCSF); 400 µM): 0 unit
- concentrations of the viral P24 antigen, 89.6(+) ([1]; 0.1 µM): 1000 unit
- concentrations of the viral P24 antigen, 89.6(-) ([1]; 0.1 µM): 1000 unit
- concentrations of the viral P24 antigen, 89.6(+) ([1]; 0.5 µM): 954.88 unit
- concentrations of the viral P24 antigen, 89.6(-) ([1]; 0.5 µM): 1000 unit
- concentrations of the viral P24 antigen, 89.6(+) ([1]; 1 µM): 149.67 unit
- concentrations of the viral P24 antigen, 89.6(-) ([1]; 1 µM): 966.67 unit
- concentrations of the viral P24 antigen, 89.6(+) ([1]; 5 µM): 66.78 unit
- concentrations of the viral P24 antigen, 89.6(-) ([1]; 5 µM): 1000 unit
- concentrations of the viral P24 antigen, 89.6(+) ([1]; 10 µM): 14.36 unit
- concentrations of the viral P24 antigen, 89.6(-) ([1]; 10 µM): 624.39 unit
- concentrations of the viral P24 antigen, 89.6(+) ([1]; 25 µM): 5.2 unit
- concentrations of the viral P24 antigen, 89.6(-) ([1]; 25 µM): 504.42 unit
- concentrations of the viral P24 antigen, 89.6(+) ([1]; 50 µM): 18.4 unit
- concentrations of the viral P24 antigen, 89.6(-) ([1]; 50 µM): 286.46 unit
- concentrations of the viral P24 antigen, 89.6(+) ([1]; 100 µM): 8.91 unit
- concentrations of the viral P24 antigen, 89.6(-) ([1]; 100 µM): 278.43 unit
- concentrations of the viral P24 antigen, 89.6(+) ([1]; 200 µM): 0 unit
- concentrations of the viral P24 antigen, 89.6(-) ([1]; 200 µM): 124.97 unit
- concentrations of the viral P24 antigen, 89.6(+) ([1]; 400 µM): 0 unit
- concentrations of the viral P24 antigen, 89.6(-) ([1]; 400 µM): 0 unit
- concentrations of the viral P24 antigen, NL43(+) ([2]; 0.1 µM): 1000 unit
- concentrations of the viral P24 antigen, NL43(-) ([2]; 0.1 µM): 1000 unit
- concentrations of the viral P24 antigen, NL43(+) ([2]; 0.5 µM): 1000 unit
- concentrations of the viral P24 antigen, NL43(-) ([2]; 0.5 µM): 1000 unit
- concentrations of the viral P24 antigen, NL43(+) ([2]; 1 µM): 1000 unit
- concentrations of the viral P24 antigen, NL43(-) ([2]; 1 µM): 1000 unit
- concentrations of the viral P24 antigen, NL43(+) ([2]; 5 µM): 1000 unit
- concentrations of the viral P24 antigen, NL43(-) ([2]; 5 µM): 1000 unit
- concentrations of the viral P24 antigen, NL43(+) ([2]; 10 µM): 1000 unit
- concentrations of the viral P24 antigen, NL43(-) ([2]; 10 µM): 1000 unit
- concentrations of the viral P24 antigen, NL43(+) ([2]; 25 µM): 220.63 unit
- concentrations of the viral P24 antigen, NL43(-) ([2]; 25 µM): 1000 unit
- concentrations of the viral P24 antigen, NL43(+) ([2]; 50 µM): 273.07 unit
- concentrations of the viral P24 antigen, NL43(-) ([2]; 50 µM): 922.63 unit
- concentrations of the viral P24 antigen, NL43(+) ([2]; 100 µM): 0 unit
- concentrations of the viral P24 antigen, NL43(-) ([2]; 100 µM): 687.24 unit
- concentrations of the viral P24 antigen, NL43(+) ([2]; 200 µM): 0 unit
- concentrations of the viral P24 antigen, NL43(-) ([2]; 200 µM): 518.45 unit
- concentrations of the viral P24 antigen, NL43(+) ([2]; 400 µM): 0 unit
- concentrations of the viral P24 antigen, NL43(-) ([2]; 400 µM): 2.53 unit
- viral replications (result in words) ([3]; Figures 3-5, PBMC infected with NL-43, JRCSF or 89.6): significantly inhibited viral replications
- inhibit viral replication ([3]; at the concentration of 100 µM or less, various HIV isolates): 100%
- The numbers of dead cells in 400 cells' count ([4]; 0.1 µM): 9
- % viability ([4]; 0.1 µM): 391/391 (100%)
- The numbers of dead cells in 400 cells' count ([4]; 0.5 µM): 7
- % viability ([4]; 0.5 µM): 393/391 (100.5%)
- The numbers of dead cells in 400 cells' count ([4]; 1 µM): 12
- % viability ([4]; 1 µM): 388/391 (99.2%)
- The numbers of dead cells in 400 cells' count ([4]; 5 µM): 9
- % viability ([4]; 5 µM): 391/391 (100%)
- The numbers of dead cells in 400 cells' count ([4]; 10 µM): 7
- % viability ([4]; 10 µM): 393/391 (100.5%)
- The numbers of dead cells in 400 cells' count ([4]; 25 µM): 11
- % viability ([4]; 25 µM): 389/391 (99.5%)
- The numbers of dead cells in 400 cells' count ([4]; 50 µM): 11
- % viability ([4]; 50 µM): 389/391 (99.5%)
- The numbers of dead cells in 400 cells' count ([4]; 100 µM): 7
- % viability ([4]; 100 µM): 393/391 (100.5%)
- The numbers of dead cells in 400 cells' count ([4]; 200 µM): 8
- % viability ([4]; 200 µM): 392/391 (100.3%)
- The numbers of dead cells in 400 cells' count ([4]; 400 µM): 7
- % viability ([4]; 400 µM): 393/391 (100.5%)
- viabilities of PBMC under high-dose versus low-dose treatments (result in words) ([4]; high dose up to 400 µM compared with 0.1-10 µM): no substantial differences
